Assay results as given in patent US8648066B2 (Exelixis, Inc., priority 2009, dated 2014).

Molecular target: mTOR/GbL/Raptor (mTORC1) (Homo sapiens, UniProt P42345)
Assay: mTOR/GbL/Raptor (mTORC1) ELISA assay
Type: biochemical
Settings: phosphorylation of 4E-BP1; 0.2 nM mTORC1, 10 μM ATP; read-out: IC50 in this assay (mTORC1 ELISA)
How it was run: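 ELISA read-out: phospho-4E-BP1 captured on Ni-chelate plates and detected with anti-phospho antibody plus HRP-anti-IgG luminescence. The kinase step ran 120 min at ambient temperature with 0.2 nM human mTORC1, 10 µM ATP, 50 nM His-4E-BP1, 10 mM MnCl2, pH 7.2 HEPES.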

Row | SMILES | IC50 [nM]
1 | Cc1cccc(Cl)c1S(=O)(=O)Nc1cc(-c2ccc3c(c2)CN(c2ncnc4c2CC(C)(C)CC4)CCO3)cnc1Cl [Example 429, 2-chloro-N-{2-chloro-5-[4-(6,6-dimethyl-5,6,7,8-tetrahydroquinazolin-4-yl)-2,3,4,5-tetrahydro-1,4-benzoxazepin-7-yl]pyridin-3-yl}-6-methylbenzenesulfonamide] | 250 to 1000
2 | CC1(C)CCc2ncnc(N3CCOc4ccc(-c5cnc(N)c(S(=O)(=O)CCCO)c5)cc4C3)c2C1 [Example 430, 3-({2-amino-5-[4-(6,6-dimethyl-5,6,7,8-tetrahydroquinazolin-4-yl)-2,3,4,5-tetrahydro-1,4-benzoazepin-7-yl]pyridin-3-yl}sulfonyl)propan-1-ol] | 10 to 50
3 | CC1(C)CCc2ncnc(N3CCOc4ccc(-c5cnc(N)c(S(=O)(=O)CC(O)CO)c5)cc4C3)c2C1 (centres unmarked) [Example 431, 3-({2-amino-5-[4-(6,6-dimethyl-5,6,7,8-tetrahydroquinazolin-4-yl)-2,3,4,5-tetrahydro-1,4-benzoxazepin-7-yl]pyridin-3-yl}sulfonyl)propane-1,2-diol] | 10 to 50
4 | CC1(C)CCc2ncnc(N3CCOc4ccc(-c5cnc(N)c(S(=O)(=O)N6CC7(CNC7)C6)c5)cc4C3)c2C1 [Example 432, 3-(2,6-diazaspiro[3.3]hept-2-ylsulfonyl)-5-[4-(6,6-dimethyl-5,6,7,8-tetrahydroquinazolin-4-yl)-2,3,4,5-tetrahydro-1,4-benzoxazepin-7-yl]pyridin-2-amine] | 10 to 50
5 | CC1(C)CCc2ncnc(N3CCOc4ccc(-c5cnc(N)c(S(=O)(=O)N6CC(F)(F)C6)c5)cc4C3)c2C1 [Example 438, 3-[(3,3-difluoroazetidin-1-yl)sulfonyl]-5-[4-(6,6-dimethyl-5,6,7,8-tetrahydroquinazolin-4-yl)-2,3,4,5-tetrahydro-1,4-benzoxazepin-7-yl]pyridin-2-amine] | 50 to 250
6 | CC1(C)CCc2ncnc(N3CCOc4ccc(-c5cnc(N)c(S(=O)(=O)N6CC(C)(N)C6)c5)cc4C3)c2C1 [Example 439, 3-[(3-amino-3-methylazetidin-1-yl)sulfonyl]-5-[4-(6,6-dimethyl-5,6,7,8-tetrahydroquinazolin-4-yl)-2,3,4,5-tetrahydro-1,4-benzoxazepin-7-yl]pyridin-2-amine] | ≤ 10
7 | CC1(C)CCc2ncnc(N3CCOc4ccc(-c5cnc(N)c(S(=O)(=O)N6CCC(C)(N)C6)c5)cc4C3)c2C1 (centres unmarked) [Example 440, 3-[(3-amino-3-methylpyrrolidin-1-yl)sulfonyl]-5-[4-(6,6-dimethyl-5,6,7,8-tetrahydroquinazolin-4-yl)-2,3,4,5-tetrahydro-1,4-benzoxazepin-7-yl]pyridin-2-amine] | ≤ 10
8 | CC1(C)CCc2ncnc(N3CCOc4ccc(-c5cnc(N)c(S(=O)(=O)N6CCC(N)CC6)c5)cc4C3)c2C1 [Example 446, 3-[(4-aminopiperidin-1-yl)sulfonyl]-5-[4-(6,6-dimethyl-5,6,7,8-tetrahydroquinazolin-4-yl)-2,3,4,5-tetrahydro-1,4-benzoxazepin-7-yl]pyridin-2-amine] | 10 to 50
9 | CC1=Cc2ncnc(N3CCOc4ccc(-c5cnc(N)c(S(=O)(=O)N6CC[C@@H](N)C6)c5)cc4C3)c2CC1(C)C [Example 447, 3-{[(3R)-3-aminopyrrolidin-1-yl]sulfonyl}-5-[4-(6,6,7-trimethyl-5,6-dihydroquinazolin-4-yl)-2,3,4,5-tetrahydro-1,4-benzoxazepin-7-yl]pyridin-2-amine] | ≤ 10
10 | CC1=CC(C)(C)Cc2c1ncnc2N1CCOc2ccc(-c3cnc(N)c(S(=O)(=O)N4CC[C@@H](N)C4)c3)cc2C1 [Example 448, 3-{[(3R)-3-aminopyrrolidin-1-yl]sulfonyl}-5-[4-(6,6,8-trimethyl-5,6-dihydroquinazolin-4-yl)-2,3,4,5-tetrahydro-1,4-benzoxazepin-7-yl]pyridin-2-amine] | ≤ 10
11 | CC1(C)C=Cc2ncnc(N3CCOc4ccc(-c5cnc(N)c(S(=O)(=O)N6CC[C@@H](N)C6)c5)cc4C3)c2C1 [Example 450, 3-{[(3R)-3-aminopyrrolidin-1-yl]sulfonyl}-5-[4-(6,6-dimethyl-5,6-dihydroquinazolin-4-yl)-2,3,4,5-tetrahydro-1,4-benzoxazepin-7-yl]pyridin-2-amine] | ≤ 10
12 | CC1(C)CCc2ncnc(N3CCOc4ccc(-c5cnc(O)c(S(=O)(=O)N6CC[C@H](N)C6)c5)cc4C3)c2C1 [Example 453, 3-{[(3S)-3-aminopyrrolidin-1-yl]sulfonyl}-5-[4-(6,6-dimethyl-5,6,7,8-tetrahydroquinazolin-4-yl)-2,3,4,5-tetrahydro-1,4-benzoxazepin-7-yl]pyridin-2-ol] | 50 to 250
13 | COc1ccc2c(N3CCOc4ccc(-c5cnc(N)c(S(=O)(=O)N6CC[C@H](N)C6)c5)cc4C3)ncnc2c1 [Example 454, 3-{[(3S)-3-aminopyrrolidin-1-yl]sulfonyl}-5-{4-[7-(methyloxy)quinazolin-4-yl]-2,3,4,5-tetrahydro-1,4-benzoxazepin-7-yl}pyridin-2-amine] | 250 to 1000
14 | CN(C)C1CN(S(=O)(=O)c2cc(-c3ccc4c(c3)CN(c3ncnc5c3CC(C)(C)CC5)CCO4)cnc2N)C1 [Example 455, 3-{[3-(dimethylamino)azetidin-1-yl]sulfonyl}-5-[4-(6,6-dimethyl-5,6,7,8-tetrahydroquinazolin-4-yl)-2,3,4,5-tetrahydro-1,4-benzoxazepin-7-yl]pyridin-2-amine] | 50 to 250
15 | COc1ccc2c(N3CCOc4ccc(-c5cccc(C(=O)O)c5)cc4C3)nc(C)nc2c1 [Example 456, 3-{4-[2-methyl-7-(methyloxy)quinazolin-4-yl]-2,3,4,5-tetrahydro-1,4-benzoxazepin-7-yl}benzoic acid] | ≥ 2000

Results, then the molecule that gave them:

Row | IC50 [nM] | SMILES
16 | 10 to 50 | CC1(C)CCc2ncnc(N3CCOc4ccc(-c5cnc(N)c(S(=O)(=O)N6CCC6)c5)cc4C3)c2C1 [Example 434, 3-(azetidin-1-ylsulfonyl)-5-[4-(6,6-dimethyl-5,6,7,8-tetrahydroquinazolin-4-yl)-2,3,4,5-tetrahydro-1,4-benzoxazepin-7-yl]pyridine-2-amine]
17 | 10 to 50 | CC1(C)CCc2ncnc(N3CCOc4ccc(-c5cnc(N)c(S(=O)(=O)N6C[C@H]7C[C@@H]6CN7)c5)cc4C3)c2C1 [Example 435, 2-[(1R,4R)-2,5-diazabicyclo[2.2.1]hept-2-ylsulfonyl]-5-[4-(6,6-dimethyl-5,6,7,8-tetrahydroquinazolin-4-yl)-2,3,4,5-tetrahydro-1,4-benzoxazepin-7-yl]pyridin-2-amine]
18 | ≤ 10 | CC1(C)CCc2ncnc(N3CCOc4ccc(-c5cnc(N)c(S(=O)(=O)N6C[C@@H]7C[C@H]6CN7)c5)cc4C3)c2C1 [Example 436, 3-[(1S,4S)-2,5-diazabicyclo[2.2.1]hept-2-ylsulfonyl]-5-[4-(6,6-dimethyl-5,6,7,8-tetrahydroquinazolin-4-yl)-2,3,4,5-tetrahydro-1,4-benzoxazepin-7-yl]pyridin-2-amine]
19 | 10 to 50 | CC[C@H]1CCc2c(ncnc2N2CCOc3ccc(-c4cnc(N)c(S(=O)(=O)N5C[C@@H]6C[C@H]5CN6)c4)cc3C2)C1 [Example 437, 3-[(1S,4S)-2,5-diazabicyclo[2.2.1]hept-2-ylsulfonyl]-5-{4-[(7S)-7-ethyl-5,6,7,8-tetrahydroquinazolin-4-yl]-2,3,4,5-tetrahydro-1,4-benzoxazepin-7-yl}pyridin-2-amine]
20 | 10 to 50 | CC[C@H]1CCc2c(nc(C)nc2N2CCOc3ccc(-c4cnc(N)c(S(=O)(=O)N5CCC(C)(N)C5)c4)cc3C2)C1 (stereo partly drawn) [Example 441, 3-[(3-amino-3-methylpyrrolidin-1-yl)sulfonyl]-5-{4-[(7S)-7-ethyl-2-methyl-5,6,7,8-tetrahydroquinazolin-4-yl]-2,3,4,5-tetrahydro-1,4-benzoxazepin-7-yl}pyridin-2-amine]
21 | 10 to 50 | CC[C@H]1CCc2c(ncnc2N2CCOc3ccc(-c4cnc(N)c(S(=O)(=O)N5CCC(C)(N)C5)c4)cc3C2)C1 (stereo partly drawn) [Example 442, 3-[(3-amino-3-methylpyrrolidin-1-yl)sulfonyl]-5-{4-[(7S)-7-ethyl-5,6,7,8-tetrahydroquinazolin-4-yl]-2,3,4,5-tetrahydro-1,4-benzoxazepin-7-yl}pyridin-2-amine]
22 | ≤ 10 | CC1(C)CCc2ncnc(N3CCOc4ccc(-c5cnc(N)c(S(=O)(=O)N6CC(N)C6)c5)cc4C3)c2C1 [Example 443, 3-[(3-aminoazetidin-1-yl)sulfonyl]-5-[4-(6,6-dimethyl-5,6,7,8-tetrahydroquinazolin-4-yl)-2,3,4,5-tetrahydro-1,4-benzoxazepin-7-yl]pyridin-2-amine]
23 | 10 to 50 | CC1(C)CCc2ncnc(N3CCOc4ccc(-c5cnc(N)c(S(=O)(=O)N6CCCC(N)C6)c5)cc4C3)c2C1 (centres unmarked) [Example 444, 3-[(3-aminopiperidin-1-yl)sulfonyl]-5-[4-(6,6-dimethyl-5,6,7,8-tetrahydroquinazolin-4-yl)-2,3,4,5-tetrahydro-1,4-benzoxazepin-7-yl]pyridin-2-amine]
24 | ≤ 10 | CC1(C)CCc2ncnc(N3CCOc4ccc(-c5cnc(N)c(S(=O)(=O)N6CC[C@@H](N)C6)c5)cc4C3)c2C1 [Example 449, 3-{[(3R)-3-aminpyrrolidin-1-yl]sulfonyl}-5-[4-(6,6-dimethyl-5,6,7,8-tetrahydroquinazolin-4-yl)-2,3,4,5-tetrahydro-1,4-benzoxazepin-7-yl]pyridin-2-amine]
25 | 10 to 50 | CC[C@H]1CCc2c(ncnc2N2CCOc3ccc(-c4cnc(N)c(S(=O)(=O)N5CC[C@@H](N)C5)c4)cc3C2)C1 [Example 451, 3-{[(3R)-3-aminopyrrolidin-1-yl]sulfonyl}-5-{4-[(7S)-7-ethyl-5,6,7,8-tetrahydroquinazolin-4-yl]-2,3,4,5-tetrahydro-1,4-benzoxazepin-7-yl}pyridin-2-amine]
26 | ≤ 10 | CC1(C)CCc2ncnc(N3CCOc4ccc(-c5cnc(N)c(S(=O)(=O)N6CC[C@H](N)C6)c5)cc4C3)c2C1 [Example 452, 3-{[(3S)-3-aminopyrrolidin-1-yl]sulfonyl}-5-[4-(6,6-dimethyl-5,6,7,8-tetrahydroquinazolin-4-yl)-2,3,4,5-tetrahydro-1,4-benzoxazepin-7-yl]pyridin-2-amine]
